From PMC3565751, “The Feasibility of Enzyme Targeted Activation for Amino Acid/Dipeptide Monoester Prodrugs of Floxuridine; Cathepsin D as a Potential Targeted Enzym” (Molecules, 2012)

Columns and labels:
[1] = system: Capan-2 cell homogenates and cytosolic enzyme extracts; assay: Prodrug stability in cytosolic enzyme extract versus whole cell homogenate of Capan-2 cells; type: in vitro ADME
Procedure: In stability studies of test compounds in cell homogenates, the location of enzymes in living cells is not considered and the inaccessible enzymes in vivo condition may be able to degrade those analytes in this in vitro setting. Therefore, the result of prodrug stabilities in cell homogenate may be different to one in vivo, where all enzymes are arranged in all specific locations. The experiments of prodrug activation concerning the location of enzymes in cells were performed at 37 °C in Capan-2 cell homogenates and in cytosolic enzyme extracts. For the comparison purpose, the same experiments were performed at 37 °C in Caco-2 cell homogenates and in cytosolic enzyme extracts. […] The difference between them was minimal (1.4- to 2.5 fold). […] In Capan-2 cells, the stabilities of 5′-O-L-phenylalanyl-L-glycylfloxuridine and 5′-O-L-phenylalanylfloxuridine were improved 7.4- and 7.3-fold, while the ones of 5′-O-L- phenylalanyl-L-tyrosylfloxuridine and 5′-O-L-glycyl-L-leucylfloxuridine were declined 3.9- and 6.0-fold, respectively.
(§1) Preparation of Cytosolic Enzyme Extract. Confluent Caco-2 cells and Capan-2 cells (2 plates; 150 mm × 25 mm plate) were rinsed with saline twice. The cells were washed off with 1 mL of pH 7.4 phosphate buffer (10 mmol/L) and the enzymes were extracted through 30 gauge needle 10 times in ice-cold bath. Cell suspension was spun at 10,000 × g for 2 h at 4 °C and the supernatant was spun at 39,000 × g for 2 h at 4 °C. Protein amount was quantified with the Bio-Rad (Hercules, CA, USA) DC Protein Assay using bovine serum albumin as a standard. The protein amount was adjusted to 500 µg/mL and the hydrolysis reactions were carried out in 96-well plates (Corning). Caco-2 cells and Capan-2 cell suspensions (250 µL) were placed in triplicate wells either presence or absence of various inhibitors, the reactions were started with the addition of substrate (200 µM), and wells were incubated at 37 °C for 120 min (time points; 0, 5, 10, 30, 60, and 120 min). At each time point, aliquot sample (35 µL) was removed and added to 150 µL of acetonitrile (ACN) with 0.1% TFA to prevent the further degradation. The mixtures were filtered with a 0.45 µm filters at 1,000 × g for 10 min at 4 °C. The filtrate wasthen analyzed via reverse-phaseHPLC.
(§2) The initial rates of hydrolysis were used to obtain the apparent first-order rate constants and estimate the half-lives. The apparent first-order degradation rate constants of various floxuridine prodrugs at 37 °C were determined by plotting the logarithm of prodrug remaining as a function of time. The slopes of these plots are related to the rate constant, k, and given by:
(§3) The concentrations of prodrugs and their metabolites were determined on a Waters HPLC system (Waters, Inc., Milford, MA, USA). The HPLC system consisted of two Waters pumps (model 515), a Waters autosampler (WISP model 712), and a Waters UV detector (996 photodiode array detector). The system was controlled by Waters Millennium 32 software (version 3.0.1). Samples were injected onto a Waters Xterra C18 reverse-phase column (5 µm, 4.6 × 250 mm) equipped with a guard column. The compounds were eluted using gradient method. All prodrugs were run with the solvent B gradient changing 0% to 56% at a rate of 2%/min during a 28-min run. Standard curves generated for each prodrug and their parent drugs were used for quantitation of integrated area under peaks.

Capan-2 cell homogenate = assay: Prodrug hydrolysis in Capan-2 cell homogenate with the presence and the absence of selective enzyme inhibitors; type: in vitro ADME; details: for Half Life, DPP 3 Inhibitor: Capan-2 cell homogenate with 1,10-phenanthroline; for Half Life, DPP 3 Inhibitor / Half Life, TPP 2 Inhibitor / Half Life, Cathepsin D Inhibitor / Half Life, Aminopeptidase Inhibitor / Half Life, Capan-2 Cell Homogenate: 37 °C; for Half Life, DPP 3 Inhibitor / Half Life, TPP 2 Inhibitor / Half Life, Cathepsin D Inhibitor / Half Life, Aminopeptidase Inhibitor: pH 7.4; for Half Life, TPP 2 Inhibitor: Capan-2 cell homogenate with H-Ala-Ala-Phe-CMK CF3CO2H; for Half Life, Cathepsin D Inhibitor: Capan-2 cell homogenate with pepstatin A; for Half Life, Aminopeptidase Inhibitor: Capan-2 cell homogenate with puromycin; for Half Life, Capan-2 Cell Homogenate: no inhibitor, pH 7.4 phosphate buffer, 200 µM substrate, mean ± s.d.
Procedure: Hydrolysis StudiesPreparation of Capan-2 cell homogenates. Preparation of cell homogenates has been reported previously. Confluent Capan-2 cells (2 plates; 150 mm × 25 mm plate) were rinsed with saline twice. The cells were washed off with 5 mL of pH 7.4 phosphate buffer (10 mmol/L) and the lysed cells by ultrasonication (Micro ultrasonic cell disrupter Model KT40, Kontes, Vineland, NJ, USA) were spun down by centrifugation.
as §1, §2
k = 2.303 × slope (log C vs. time) (1)
The degradation half-lives were then estimated by the equation: […]
as §3

[2] = set-up: method as in PMID 18719516; details: pH 7.4 phosphate buffer; mean ± s.d.; ref [50]; cited from earlier work
Capan-2 cell lines = assay: Cell proliferation (XTT) assay; type: cell-based; details: 4 mmol/L, 4 h drug treatment
Procedure: The percentage of growth inhibition for amino acid/dipeptide monoester prodrugs of floxuridine in Capan-2 cell was evaluated via 2,3-bis[2-methoxy-4-nitro-5-sulfophenyl]-2H-tetrazolium-5-carboxanilideinner salt (XTT) assays (Figure 3). The growth inhibitory effect of tested floxuridine prodrugs after 4 h drug treatment range from 0.0–91.1% at 4 h, 0.0–84.2% at 8 h, and 41.8–84.8% at 24 h in Capan-2 cell lines. […] While specific activation enzymes for 5′-O-L-leucyl-L-glycylfloxuridine and 5′-O-L-phenylalanylfloxuridine have not been identified, those enzymes may be highly localized at the plasma membrane and cytosol. Thus, the activation of those prodrugs took place immediately after translocation of prodrugs into the cells and started inhibiting tumor growth. Leucine and phenylalanine are reportedly good substrates for aminopeptidases and carboxylesterase, respectively.
Cell proliferation studies were conducted with Capan-2 cell lines. The cells were seeded into 96-well plates at […] per well and allowed to attach/grow for 24 h before drug solutions were added. The culture medium (RPMI-1640 + 10% fetal bovine serum) was removed and the cells were gently washed once with sterile pH 6.0 uptake buffer (145 mM NaCl, 0.5 mM MgCl2, 1 mM NaH2PO4, 1 mM CaCl2, 3 mM KCl, 5 mM glucose, and 5 mM MES). Floxuridine prodrugs and floxuridine were diluted in pH 6.0 uptake buffer to 4 mmol/L using no drug as a 100% viability control. The wash buffer was removed and 25 µL drug solution per well were added and incubated at 37 °C for 4 h in the cell incubator. After this time, the drug solutions were removed and the cells were again gently washed twice with sterile uptake buffer. RPMI-1640 was then added to each well after washing. The cells were allowed to recover for 4 h, 8 h, or 24 h before evaluating cell viability via 2,3-bis[2-methoxy-4-nitro-5-sulfophenyl]-2H-tetrazolium-5-carboxanilide inner salt (XTT) assays. […] Absorbance readings at 450 nm were recorded.

human cathepsin B = biological target: T1, human cathepsin B (Homo sapiens, UniProt P07858); assay: Prodrug stability with human cathepsin B; type: biochemical; details: pH 7.4 phosphate buffer, 37 °C, 200 µM substrate
T1 construct: cathepsin B (human liver), and cathepsin D (human liver) were obtained from Sigma Chemical Co; purchased Sigma Chemical Co (St. Louis, MO, USA); host or cells: human liver (tissue-derived)
Text: (§4) The high expression levels of cathepsins in tumors have been reported. It has been investigated if the protein levels of cathepsin B and D would associate with pathological parameters in order to assess the difference in protein levels of cathepsins as possible tumor biomarkers. Cathepsin B, one of the highest gene expressions in enzymes of Capan-2 cell, is a cysteine endopeptidase and reportedly has similar activity to carboxypeptidase and peptidyl-dipeptidase. On the other hand, cathepsin D has been reported that it preferentially hydrolyzes the peptide bond of bulky hydrophobic amino acids and the peptide bond between Phe-Phe of Bz-Arg-Gly-Phe-Phe-Pro-4MbNA [75, 76, 77]. The metabolic stability of floxuridine prodrugs was assessed using human cathepsin B and D in pH 7.4 phosphate buffer. […] However, the enzyme specificity between cathepsin B and D in prodrug activation for those two prodrugs was not observed.
(§5) Prodrug stability with Cathepsin B and D. Lyophilized enzyme powder was dissolved and adjusted to 2.5 mg/mL of pure enzyme, human cathepsin B and D. The hydrolysis reactions were immediately started by adding substrates (200 µM) in 96-well plates (Corning). The reactions were carried out at 37 °C for 120 min (time points; 0, 5, 10, 30, 60, and 120 min). At each time point, aliquot sample (35 µL) was removed and added to 150 µL of acetonitrile (ACN) with 0.1% TFA. The mixtures were filtered with a 0.45 µm filters at 1,000 × g for 10 min at 4 °C. The filtrate was then analyzed via reverse-phase HPLC.
as §2, with “The slopes of these plots are related to the rate constant, k, and given by:” left out
(§6) The concentrations of prodrugs and their metabolites were determined on a Waters HPLC system (Waters, Inc., Milford, MA, USA). […] Standard curves generated for each prodrug and their parent drugs were used for quantitation of integrated area under peaks.

human cathepsin D = biological target: T2, human cathepsin D (Homo sapiens, UniProt P07339); assay: Prodrug stability with human cathepsin D; type: biochemical; details: pH 7.4 phosphate buffer, 37 °C, 200 µM substrate
T2 construct: cathepsin B (human liver), and cathepsin D (human liver) were obtained from Sigma Chemical Co; purchased Sigma Chemical Co (St. Louis, MO, USA); host or cells: human liver (tissue-derived)
Text: as §4, §5
as §2, with “The slopes of these plots are related to the rate constant, k, and given by:” left out
as §6

T2 sequence (P07339 169-412 limits assumed): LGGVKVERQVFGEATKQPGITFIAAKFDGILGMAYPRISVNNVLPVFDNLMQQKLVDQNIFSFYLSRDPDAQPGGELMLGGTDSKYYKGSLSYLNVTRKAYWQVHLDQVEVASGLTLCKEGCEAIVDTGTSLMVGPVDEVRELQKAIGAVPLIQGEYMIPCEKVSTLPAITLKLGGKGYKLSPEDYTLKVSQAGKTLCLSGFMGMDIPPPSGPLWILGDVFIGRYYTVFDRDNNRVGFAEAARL
T2 sequence (P07339 65-162 limits assumed): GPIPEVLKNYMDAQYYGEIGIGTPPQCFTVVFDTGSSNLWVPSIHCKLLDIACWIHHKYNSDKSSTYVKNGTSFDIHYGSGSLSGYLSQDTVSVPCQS

| SMILES | Hydrolysis products detected in cell homogenates and cytosolic enzyme extracts [1] | Change of stability in all conditions (with and without enzyme inhibitors) (Capan-2 cell homogenate; Capan-2 cell homogenate) | Hydrolysis products observed (Capan-2 cell homogenate; Capan-2 cell homogenate) | Half Life, Phosphate Buffer pH 7.4 [2] [min] | Onset of growth inhibition of tumor cells (Capan-2 cell lines) | Half Life, DPP 3 Inhibitor (Capan-2 cell homogenate) [min] | Half Life, TPP 2 Inhibitor (Capan-2 cell homogenate) [min] | Half Life, Cathepsin D Inhibitor (Capan-2 cell homogenate) [min] | Half Life, Aminopeptidase Inhibitor (Capan-2 cell homogenate) [min] | Half Life, Capan-2 Cell Homogenate (Capan-2 cell homogenate) [min] | Stability (degradation) against cathepsin B compared with absence of enzyme (human cathepsin B) | Stability (degradation) against cathepsin D compared with absence of enzyme (human cathepsin D) | Fold decline of stability in cytosolic extract versus Capan-2 cell homogenate ([1]; 37 °C, pH 7.4 phosphate buffer) [fold] | Change of half life with the presence of pepstatin A (Capan-2 cell homogenate; Capan-2 cell homogenate) | Change of half lives with other enzyme inhibitors (not pepstatin A) (Capan-2 cell homogenate; Capan-2 cell homogenate) | Fold longer half life (stability improved) in cytosolic extract than in Capan-2 cell homogenate ([1]; 37 °C, pH 7.4 phosphate buffer) [fold] |
| --- | --- | --- | --- | --- | --- | --- | --- | --- | --- | --- | --- | --- | --- | --- | --- | --- |
| CC(C)C[C@H](NC(=O)CN)C(=O)OC[C@H]1O[C@@H](n2cc(F)c(=O)[nH]c2=O)C[C@@H]1O [5'-O-L-glycyl-L-leucylfloxuridine] | Floxuridine and amino acid mono ester prodrugs of floxuridine were observed | no change in its stability in all conditions | Amino acid monoester prodrugs of floxuridine and their parent drug were observed | – | – | – | – | – | – | – | – | – | – | – | – | – |
| CC(C)C[C@H](N)C(=O)NCC(=O)OC[C@H]1O[C@@H](n2cc(F)c(=O)[nH]c2=O)C[C@@H]1O [5'-O-L-leucyl-L-glycylfloxuridine] | only floxuridine was detected | – | – | 23.1 ± 4.1 | immediately inhibited the growth of tumor cells | 32.2 ± 9.3 | 5.6 ± 0.6 | 7.9 ± 0.7 | 14.0 ± 4.3 | 3.9 ± 1.1 | – | – | – | – | – | – |
| N[C@@H](Cc1ccccc1)C(=O)N[C@@H](Cc1ccc(O)cc1)C(=O)OC[C@H]1O[C@@H](n2cc(F)c(=O)[nH]c2=O)C[C@@H]1O [5'-O-L-phenylalanyl-L-tyrosyl-floxuridine] | Floxuridine and amino acid mono ester prodrugs of floxuridine were observed | – | Amino acid monoester prodrugs of floxuridine and their parent drug were observed | 233.9 ± 6.6 | – | 47.2 ± 3.6 | 42.2 ± 1.3 | 105.7 ± 12.8 | 54.7 ± 2.8 | 42.8 ± 0.0 | significant degradation | significant degradation | 3.9 | significantly prolonged | not improved | – |
| N[C@@H](Cc1ccccc1)C(=O)OC[C@H]1O[C@@H](n2cc(F)c(=O)[nH]c2=O)C[C@@H]1O [5'-O-L-phenylalanylfloxuridine] | only floxuridine was detected | – | – | 187.0 ± 19.0 | immediately inhibited the growth of tumor cells | 28.9 ± 10.7 | 15.3 ± 0.6 | 60.6 ± 4.6 | 48.7 ± 0.37 | 3.0 ± 0.1 | – | – | – | – | – | 7.3 |
| CC(C)[C@H](N)C(=O)N[C@@H](Cc1ccccc1)C(=O)OC[C@H]1O[C@@H](n2cc(F)c(=O)[nH]c2=O)C[C@@H]1O [5'-O-L-valyl-L-phenylalanyl-floxuridine] | Floxuridine and amino acid mono ester prodrugs of floxuridine were observed | – | Amino acid monoester prodrugs of floxuridine and their parent drug were observed | 104.7 ± 7.0 | – | 67.7 ± 15.1 | 46.1 ± 1.9 | 76.4 ± 6.1 | 93.6 ± 29.3 | 56.2 ± 12.8 | not a good substrate for cathepsins | not a good substrate for cathepsins | – | – | – | – |
| CC[C@H](C)[C@H](N)C(=O)NCC(=O)OC[C@H]1O[C@@H](n2cc(F)c(=O)[nH]c2=O)C[C@@H]1O [5′-O-L-isoleucyl-L-glycylfloxuridine] | only floxuridine was detected | – | – | – | – | – | – | – | – | – | – | – | – | – | – | – |
